{
  "source": "patent US5591740A",
  "about": "“Use of debromohymenialdisine for treating osteoarthritis” (OsteoArthritis Sciences, Incorporated, priority 1995, dated 1997)",
  "key": {"[1]": {"test_system": "chondrocytes, interleukin-1 induced proteoglycan degradation", "assay": "Chondrocyte cell culture matrix breakdown assay (IL-1 induced 35S proteoglycan release)", "format": "cell-based, calf", "details": "for IC50: Bos taurus, chondrocyte matrix breakdown assay, 1 ng/ml rhIL-1α, 22-24 hours, read-out: IC50, inhibition of proteoglycan degradation; for dose response curve (FIG. 1): percent inhibition over a range of concentrations", "experimental": "A cell culture assay was used to-measure the ability of the test compounds to slow the degradation of the extracellular matrix by a metalloproteinase. This assay measured the amount ^35 S released from chondrocytes grown in a media with ^35 S labeled sodium sulfate. The cell culture assay was carried out as follows:\nTwo or three 1 to 3 week old calf joints were obtained from an abattoir. The proximal end of the shank was about 4-5\" long to facilitate immobilization in the holder. The joint was kept cool and transported on ice. The exterior of the intact joints was washed well with a suitable anti-microbial soap, rinsed clean with warm water, rinsed in betadine and then finally rinsed with 70% ethanol. Up to this point all steps were done in a manner to ensure that the joint was kept as clean as possible. All subsequent steps were performed in a sterile field (i.e., in a Edgeguard laminar flow tissue culture hood). The joint was immobilized and the synovial fluid was aspirated with a needle and syringe. The joint was then cut open to expose the articular cartilage using a #21 scalpel. Using locking hemostats, forceps and a #15 scalpel, the cartilage was excised in full thickness pieces. Care was taken not to cut too deep into the subchondral bone to prevent bleeding. The cartilage pieces were placed into a 50 mL centrifuge tube containing 25 mL of Delbecco's phosphate buffered saline (D-PBS) supplemented with 1% antibiotic solution (penicillin, streptomycin and fungizone; GIBCO/BRL). The slices from each joint were then placed into separate 50 mL centrifuge tubes. The D-PBS was decanted and replaced with 25 mL of fresh D-PBS supplemented with antibiotics and subsequently agitated gently.\nThe cartilage pieces were transferred to a fresh 50 mL centrifuge tube and rinsed once more with 25 mL of D-PBS minus antibiotics. An enzymatic digestion solution containing 1 mg/mL of hyaluronidase in serum-free 1:1 DMEM/Ham's F-12 (DMEM/F12) was prepared. This solution was filter sterilized with […] Milex--GV filter and kept on ice until ready to use. The cartilage pieces were digested with approximately 5 mL of hyaluronidase solution per joint for 2×15 minutes at 37° C. in the 50 mL centrifuge tube with gentle agitation at the 15 minute mark. This procedure removed residual hyaluronic acid from the surface of the chips. The enzymatic digestion solution was then aspirated and the cartilage pieces were rinsed with 25 mL of D-PBS.\nA second enzymatic digestion solution containing 2.5 mg trypsin and 2 mg collagenase P per mL serum-free DMEM/F12 was prepared. This solution was also filter sterilized with a […] Millex--GV filter and kept on ice until ready to use. The cartilage pieces were digested with approximately 5 mL of trypsin: collagenase solution per joint for 2×15 minutes at 37° C. in the 50 mL centrifuge tube with gentle agitation at the 15 minute mark. This procedure removed the synovial fibroblasts and any adherent connective tissue from the surface of the chips. The enzymatic digestion solution was then carefully removed and saved and the cartilage pieces were rinsed with 25 mL of D-PBS.\nA third enzymatic solution containing 2 mgs of collagenase P (BMB) per mL serum-free DMEM/F12 was prepared. This solution was filter sterilized with a […] Millex--GV filter and kept on ice until ready to use. The pre-digested cartilage pieces were finally digested with approximately 20 mL of enzymatic digestion solution per joint for 5-6 hours at 37° C. in a Bellco stirring digestion flask, at which point the cartilage was fully digested away.\nThe enzymes in the synovial fibroblast and chondrocyte digest were neutralized by addition of an equal volume of DMEM/F12 supplemented with 5% fetal bovine serum. Fibroblasts were plated in DMEM at a cellular density of 6.6×10^3 cells per cm^2. […]"}, "[2]": {"test_system": "bovine cartilage explants, interleukin-1 stimulated proteoglycan degradation", "assay": "Bovine articular cartilage explant assay (IL-1 induced 35S-GAG release)", "format": "cell-based, bovine (1 to 3 week old calf)", "details": "for IC50: Bos taurus, bovine cartilage explants, rhIL-1α 5 ng/mL, 3-4 days, read-out: IC50, inhibition of interleukin-1 stimulated proteoglycan degradation; for dose response curve (FIG. 2): percent inhibition over a range of concentrations", "from_the_text": "A tissue culture assay was used to measure the ability of the compounds of the present invention to slow the degradation of the extracellular matrix by metalloproteinases. This assay measured the amount of ^35 S-glycosaminoglycan (^35 S-GAG) released from labeled bovine cartilage explants.\nKnee joints from a 1 to 3 week old calf were obtained immediately after sacrifice from the Abattoir and then transported on ice. The intact joints were washed well with tap water and soaked in 50% (v/v) Povidine iodine solution, obtained from Burre National, Inc., Baltimore, Md. All subsequent steps were performed in a laminar flow tissue culture hood using standard sterile technique. The joint was immobilized in a shank holder and the joint capsule was cut open to expose the articular cartilage. Cartilage explant plugs, approximately 15 mg wet weight, were removed from the flat articulating surfaces in the lower-most region of the knee joint using a sterile steel cork-borer and collected in a 250 mL roller bottle containing about 100 mL fresh Delbecco's minimum essential medium (DMEM), obtained from Gibco BRC, Life Technologies, Gaithersburg, Md., containing 4.5 g/l (D)-glucose and (L)-glutamine, without sodium pyruvate. The fresh media also contained enough Hepes buffer and sodium bicarbonate such that the pH was about 7.4. The media was then further supplemented just before use with 100 units Penicillin, 100 μg Streptomycin, and 50 μg (L)-ascorbic acid per mL of medium.\nOnce collected, the explant plugs were washed four times with 50 mL fresh DMEM. The plugs were then placed in the incubator for a minimum of 1 hour to equilibrate, before proceeding to make disks from the articulating surface of each plug. A 1 mm thick disk was sliced from individual plugs from the end that was the articulating surface of the joint. The plug was held steady in the sterile template (4 mm diameter ×1.5 mm deep) using sterile forceps. A scalpel blade was used to carefully slice off the disk. Only the superficial articulating surface responded well in culture.\nIndividual disks obtained were transferred to a tissue culture flask containing about 100 mL fresh media. The flask containing the disks was placed in an incubator at 37° C. (with 5% CO2, 95% air) and allowed to equilibrate overnight and at least one additional day before labeling. When ready to label, the old media was replaced with 50 mL fresh media containing about 500 μCi ^35 S-Sodium Sulfate. The plugs were labeled in bulk for about 48 hours. […]\nThe TC plates were then placed in the incubator and cultured for 3-4 days (initial incubation with rhIL-1α alpha takes at least 3 days to stimulate endogenous metalloproteinases). A 50 μL aliquot of media from each TC plate was saved and counted. […]"}, "[3]": {"test_system": "osteoarthritis in Hartley guinea pigs following surgical induction of joint instability", "assay": "Slowing the development of osteoarthritis in the Hartley guinea pig model (surgically induced joint instability, Mankin scoring)", "format": "in vivo, male Hartley guinea pigs", "parameters": "Structure (Mankin criteria), mean / Cells (Mankin criteria), mean / Safranin O (Mankin criteria), mean / mean Mankin score: scale not given here", "details": "for Cells (Mankin criteria), mean: untreated 1.6; for Safranin O (Mankin criteria), mean: untreated 2.3; for Structure (Mankin criteria), mean: untreated 4.6; for mean Mankin score: untreated 10.3, placebo 10.0", "experimental": "Thirty five male Hartley guinea pigs 40 days old, were purchased from Charles River Laboratories. Each group consisted of 5 animals that were euthanized at 1, 2, 3, 4, 5, 6 and 8 months post-surgery. Ketamine 40 mg/kg, Xylazine 5 mg/kg and Fentanyl 0.1 mg/kg sc were used for anesthesia. Naloxone hydrochloride was given at 0.1 mg/kg following surgery. For radiography, animals were sedated with Xylazine 10 mg/kg sc and superficially anesthetized with Ketamine 20 mg/kg sc.\nSurgery was performed under direct visualization using a dissecting microscope at 7.5 fold magnification. A medial longitudinal parapatellar incision was followed by division of the capsule and synovial layers. A partial medical menisectomy was followed by transection of the anterior cruciate ligament. Confirmation of the ligament transection was obtained by a positive anterior drawer sign. The capsule was continuously sutured with 5-0 VICRYL™ and the skin was closed with staples.\nAfter the animals were sacrificed, joints were prepared for histological examination by standard techniques. Joints were fixed for 14 days in 10% formalin. Knees were then decalcified in 20% Formic acid in PBS, pH 7.2 for 24 hours. Sections cut at 5μ were stained with Safranin O, Fast Green and Hematoxylin. Radiographic evaluation was performed with antero-posterior and lateral views. A dental X-Ray unit and DF-50 film were used. Histopathological scoring was performed by two blinded, independent observers using the Mankin criteria (Mankin, H. J., \"Biochemical and Metabolic Aspects of Osteoarthritis,\" Orthopedic Clinics of North America, 2:19-30 (1971). This evaluation system grades the structural defects, cellular changes, loss of proteoglycan as reflected by Safranin 0, and disruption of an antatomic landmark reflecting the transition to calcified cartilage. The Mankin scoring criteria are listed below:\nSurgery was performed on twenty-four male Hartley guinea pigs during which the joint instability was induced according to the procedure described in Example 4.\nThe animals were divided into four groups of six. Beginning two weeks following surgery, each animal in the first two groups was given weekly intraarticular injections into the surgically treated joints of 0.3 mg (6 mg/ml) or 1.5 mg of Z-debromohymenialdisine (30 mg/ml) in a vehicle containing carboxymethylcellulose (2 mg/ml saline) and polysorbate 80 (0.5 mg/ml saline). Total volume of the injection was 50 μl. Group III animals were given weekly intraarticular injections of a placebo, while Group IV animals were left untreated. The treatments were continued for seven weeks.\nAt the termination of the system, the animals were euthanized and […] evaluation of the knees was performed as described in Example 5 using the Mankin criteria. The results of the histological evaluation at seven weeks post surgery are depicted in FIG. 4."}, "[4]": {"details": "0.3 or 1.5 mg/week intraarticular"}},
  "data": [
    {"smiles": "O=C1NC(=O)/C(=C2/CCNC(=O)c3[nH]c(Br)cc32)N1", "note": "[Axinohydantoin (3), axinohydantoin]", "values": [
      {"measurement": "IC50", "setting": "[1]", "value": "> 50", "unit": "µM"}
    ]},
    {"smiles": "NC1=N/C(=C2\\CCNC(=O)c3[nH]ccc32)C(=O)N1", "note": "[E-debromohymenialdisine]", "values": [
      {"measurement": "IC50", "setting": "[1]", "value": 6, "unit": "µM"},
      {"measurement": "dose response curve (FIG. 1)", "setting": "[1]", "value": "broad, shallow dose response curve"},
      {"measurement": "IC50", "setting": "[2]", "value": 50, "unit": "µM"},
      {"measurement": "dose response curve (FIG. 2)", "setting": "[2]", "value": "broad, shallow dose response curve"}
    ]},
    {"smiles": "NC1=NC(=O)/C(=C2\\CCNC(=O)c3[nH]c(Br)cc32)N1", "note": "[Hymenialdisine (2), hymenialdisine]", "values": [
      {"measurement": "IC50", "setting": "[1]", "value": "> 50", "unit": "µM"}
    ]},
    {"smiles": "NC1=N/C(=C2/CCNC(=O)c3[nH]ccc32)C(=O)N1", "note": "[Z-debromohymenialdisine]", "values": [
      {"measurement": "IC50", "setting": "[1]", "value": 0.8, "unit": "µM"},
      {"measurement": "dose response curve (FIG. 1)", "setting": "[1]", "value": "broad, shallow dose response curve"},
      {"measurement": "Cells (Mankin criteria), mean", "setting": "[3]; 0.3 mg weekly intraarticular", "value": 1.2},
      {"measurement": "Safranin O (Mankin criteria), mean", "setting": "[3]; 0.3 mg weekly intraarticular", "value": 1.5},
      {"measurement": "Structure (Mankin criteria), mean", "setting": "[3]; 0.3 mg weekly intraarticular", "value": 3.5},
      {"measurement": "mean Mankin score", "setting": "[3]; 0.3 mg/week intraarticular", "value": 6.7},
      {"measurement": "Cells (Mankin criteria), mean", "setting": "[3]; 1.5 mg weekly intraarticular", "value": 1.5},
      {"measurement": "Safranin O (Mankin criteria), mean", "setting": "[3]; 1.5 mg weekly intraarticular", "value": 1.1},
      {"measurement": "Structure (Mankin criteria), mean", "setting": "[3]; 1.5 mg weekly intraarticular", "value": 1.6},
      {"measurement": "mean Mankin score", "setting": "[3]; 1.5 mg/week intraarticular", "value": 5.5},
      {"measurement": "disease progression, result in words", "setting": "[3]; [4]", "value": "significant reduction in disease progression"},
      {"measurement": "structural and biochemical changes in developing osteoarthritis (loss of Safranin O staining), result in words", "setting": "[3]; [4]", "value": "able to diminish the structural and biochemical changes"},
      {"measurement": "joint degeneration and cartilage degradation, result in words", "setting": "[3]; animal model, weekly intraarticular", "value": "effective in slowing joint degeneration and cartilage degradation"},
      {"measurement": "IC50", "setting": "[2]", "value": 2, "unit": "µM"},
      {"measurement": "dose response curve (FIG. 2)", "setting": "[2]", "value": "broad, shallow dose response curve"}
    ]}
  ]
}
